Columns and labels:
[1] = system: hypogonadal men; details: 12-year study, hypogonadal men who received T; […] for men who did not; cited from earlier work
[2] = system: Aβ levels; details: mice, cyclic administration, high levels 10 days in a row every 30 days; cited from earlier work
[3] = system: cortical rat neurons intoxicated with human AβO 1-42; assay: Example 10: neuroprotection of cortical neurons intoxicated with human AβO 1-42; assay type: cell-based; details: BDNF 50 ng/ml; human AβO 1-42 10 μM, 24 h
Source text: This is a prophetic example. The 40 and 42 amino acid forms are the most abundant B-amyloid (Aβ) peptide forms found in AD brain senile plaques, as disclosed herein. However, the number of senile plaques in a particular region of the AD brain correlates poorly with the local extent of neuron death or synaptic loss, or with cognitive impairment (Sisodia et al., 1990). Studies have shown a robust correlation between the soluble human Aβ 1-42 oligomer (AβO) levels and the extent of synaptic loss and severity of cognitive impairment (Sakono et al., 2010). This example investigates the neuroprotective effect of the composition prepared as described in Example 2 on cortical neurons incubated for 24 hours in the presence of AβO, an in vitro model of AD (Callizot et al., 2013). Brain-derived neurotrophic factor (BDNF) is used as a positive control in this study.
Cortical rat neurons are cultured at +37° C. in a humidified air/CO2 (95/5) atmosphere. After 11 days of culture, cortical neurons are intoxicated with human AβO 1-42 at 10 μM for 24 hrs. […]
The total number of cortical neurons that survive after 24 h incubation are counted to determine the end point evaluation. […]

C[C@]12CC[C@H]3[C@@H](CCC4=CC(=O)CC[C@@]43C)[C@@H]1CC[C@@H]2O [T, testosterone]
rate of prostate cancer [1]: 2.7%

CC(=O)[C@H]1CC[C@H]2[C@@H]3CCC4=CC(=O)CC[C@]4(C)[C@H]3CC[C@]12C [progesterone]
Aβ levels [2]: decreased Aβ levels

B1: BDNF: Brain-derived neurotrophic factor, positive control (protein, UniProt P23560 19-247, looked up)
Neurotrophic factor BDNF …: APMKEANIRGQGGLAYPGVRTHGTLESVNGPKAGSRGLTSLADTFEHVIEELLDEDQKVRPNEENNKDADLYTSRVMLSSQVPLEPPLLFLLEEYKNYLDAANMSMRVRRHSDPARRGELSVCDSISEWVTAADKKTAVDMSGGTVTVLEKVPVSKGQLKQYFYETKCNPMGYTKEGCRGIDKRHWNSQCRTTQSYVRALTMDSKKRIGWRFIRIDTSCVCTLTIKRGR
cell death resulting from AβO [3]: inhibits cell death resulting from AβO

— patent publication US12083130B2, “Combination hormone formulations and therapies” (Caren Pharmaceuticals, Inc., priority 2019, dated 2024)
